Measured values from ChEMBL document CHEMBL5260834, “Benzomorphan skeleton, a versatile scaffold for different targets: A comprehensive review” (Eur J Med Chem, 2018).

Legend:
[1] = biological target: Glutamate [NMDA] receptor; assay: Antagonist activity at NMDA receptor (unknown origin) assessed as inhibition constant; assay type: protein-complex assay, Homo sapiens
[2] = Half life in mouse; assay type: ADME, organism-based; conditions: in vivo
[3] = Toxicity in mouse assessed as induction of lethality; conditions: in vivo
[4] = biological target: Mu-type opioid receptor (Rattus norvegicus, UniProt P33535); assay: Displacement of [ 3H]-naloxone from rat brain membrane mu opioid receptor assessed as inhibition constant by radioligand binding assay; assay type: cell membranes
Mu-type opioid receptor (Rattus norvegicus, UniProt P33535), sequence (P33535 whole entry): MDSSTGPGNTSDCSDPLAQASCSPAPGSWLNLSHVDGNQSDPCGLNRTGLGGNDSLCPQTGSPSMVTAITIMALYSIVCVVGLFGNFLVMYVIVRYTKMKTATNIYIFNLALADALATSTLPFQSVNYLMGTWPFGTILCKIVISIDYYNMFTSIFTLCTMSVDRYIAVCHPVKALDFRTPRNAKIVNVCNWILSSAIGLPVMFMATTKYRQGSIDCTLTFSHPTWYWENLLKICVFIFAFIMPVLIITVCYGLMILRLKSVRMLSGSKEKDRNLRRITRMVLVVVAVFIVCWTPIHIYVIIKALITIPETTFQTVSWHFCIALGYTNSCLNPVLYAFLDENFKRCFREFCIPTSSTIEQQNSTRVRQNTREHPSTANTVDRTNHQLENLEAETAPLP

[5] = biological target: T1, Sigma non-opioid intracellular receptor 1 (Cavia porcellus, UniProt Q60492); assay: Displacement of [3H]-(+)-pentazocine from sigma1 receptor in guinea pig brain membrane assessed as inhibition constant measured for 150 mins; assay type: cell membranes
T1 sequence (Q60492 whole entry): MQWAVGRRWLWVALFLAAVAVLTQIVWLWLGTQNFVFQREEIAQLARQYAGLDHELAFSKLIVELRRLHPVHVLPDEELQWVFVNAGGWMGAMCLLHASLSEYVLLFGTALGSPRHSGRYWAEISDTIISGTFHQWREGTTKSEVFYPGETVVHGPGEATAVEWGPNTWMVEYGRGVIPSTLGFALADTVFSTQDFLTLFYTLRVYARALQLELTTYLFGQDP

[6] = biological target: T2, Sigma intracellular receptor 2 (Homo sapiens, UniProt Q5BJF2); assay: Displacement of [3H]DTG from sigma 2 receptor (unknown origin) assessed as inhibition constant in presence of haloperidol measured for 120 mins by scintillation counting analysis
T2 sequence (Q5BJF2 whole entry): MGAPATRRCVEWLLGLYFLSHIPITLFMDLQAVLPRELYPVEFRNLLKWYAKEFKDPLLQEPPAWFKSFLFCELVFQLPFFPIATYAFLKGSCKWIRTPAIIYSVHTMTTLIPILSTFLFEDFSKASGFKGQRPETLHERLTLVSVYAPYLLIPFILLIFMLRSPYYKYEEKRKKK

[7] = Ratio of Ki for displacement of [3H]DTG from sigma 2 receptor (unknown origin) assessed as inhibition constant in presence of haloperidol to Ki for displacement of [3H]-(+)-pentazocine from sigma1 receptor in guinea pig brain membrane assessed as inhibition constant; assay type: cell membranes
[8] = biological target: T2, Sigma intracellular receptor 2
Description: Inhibition of sigma 2 receptor (unknown origin)

[9] = biological target: T3, Kappa-type opioid receptor (Homo sapiens, UniProt P41145); assay: Displacement of [3H]-U69593 from KOR receptor (unknown origin) assessed as inhibition constant
T3 sequence (P41145 whole entry): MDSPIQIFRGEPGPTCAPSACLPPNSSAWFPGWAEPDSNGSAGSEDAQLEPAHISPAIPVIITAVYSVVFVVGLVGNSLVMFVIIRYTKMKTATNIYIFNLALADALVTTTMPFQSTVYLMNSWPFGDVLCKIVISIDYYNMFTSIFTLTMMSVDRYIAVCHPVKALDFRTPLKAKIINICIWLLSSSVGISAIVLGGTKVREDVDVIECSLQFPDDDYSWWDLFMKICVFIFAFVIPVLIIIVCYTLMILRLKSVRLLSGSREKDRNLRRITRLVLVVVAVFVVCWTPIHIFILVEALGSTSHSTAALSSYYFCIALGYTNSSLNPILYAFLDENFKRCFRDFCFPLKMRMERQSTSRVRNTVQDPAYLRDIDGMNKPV

[10] = biological target: Mu-type opioid receptor (Homo sapiens, UniProt P35372); assay: Displacement of [3H]-Diprenorphine from MOR receptor (unknown origin) assessed as inhibition constant
Mu-type opioid receptor (Homo sapiens, UniProt P35372), sequence (P35372 whole entry): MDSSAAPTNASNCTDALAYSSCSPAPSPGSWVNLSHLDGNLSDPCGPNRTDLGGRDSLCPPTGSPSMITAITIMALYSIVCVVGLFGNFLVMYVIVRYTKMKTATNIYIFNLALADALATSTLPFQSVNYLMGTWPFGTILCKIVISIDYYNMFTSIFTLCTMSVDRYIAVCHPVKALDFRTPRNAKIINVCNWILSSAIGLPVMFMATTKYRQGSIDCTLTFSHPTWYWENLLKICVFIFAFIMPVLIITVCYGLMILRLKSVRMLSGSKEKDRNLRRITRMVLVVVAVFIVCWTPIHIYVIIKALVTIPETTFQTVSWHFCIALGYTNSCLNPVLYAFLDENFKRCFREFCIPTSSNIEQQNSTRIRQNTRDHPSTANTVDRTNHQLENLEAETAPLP

[11] = biological target: T4, Sigma non-opioid intracellular receptor 1 (Homo sapiens, UniProt Q99720); assay: Displacement of [3H]-(+)-pentazocine from sigma1 receptor (unknown origin) assessed as inhibition constant
T4 sequence (Q99720 whole entry): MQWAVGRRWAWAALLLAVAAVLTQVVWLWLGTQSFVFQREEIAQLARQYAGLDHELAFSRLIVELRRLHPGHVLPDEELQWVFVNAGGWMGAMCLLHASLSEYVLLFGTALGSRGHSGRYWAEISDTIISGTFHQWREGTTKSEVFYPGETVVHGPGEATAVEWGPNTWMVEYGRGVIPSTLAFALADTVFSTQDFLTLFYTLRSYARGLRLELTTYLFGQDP

[12] = biological target: Delta-type opioid receptor (Homo sapiens, UniProt P41143); assay: Displacement of [3H]-Diprenorphine from DOR receptor (unknown origin) assessed as inhibition constant
Delta-type opioid receptor, sequence (P41143 whole entry): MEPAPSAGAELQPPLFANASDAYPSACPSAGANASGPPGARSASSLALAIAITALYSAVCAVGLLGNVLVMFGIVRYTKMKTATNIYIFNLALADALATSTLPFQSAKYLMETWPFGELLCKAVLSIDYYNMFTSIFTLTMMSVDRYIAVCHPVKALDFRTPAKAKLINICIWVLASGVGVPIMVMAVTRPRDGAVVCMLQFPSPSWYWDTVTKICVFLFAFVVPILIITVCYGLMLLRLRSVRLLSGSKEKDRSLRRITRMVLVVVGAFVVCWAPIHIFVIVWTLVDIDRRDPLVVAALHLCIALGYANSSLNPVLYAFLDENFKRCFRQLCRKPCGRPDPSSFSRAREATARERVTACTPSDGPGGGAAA

[13] = biological target: T5, Sigma intracellular receptor 2 (Rattus norvegicus, UniProt Q5U3Y7); assay: Displacement of [3H]DTG from sigma 2 receptor in rat liver membranes assessed as inhibition constant presence of haloperidol by scintillation counting analysis; assay type: cell membranes, Membrane
T5 sequence (Q5U3Y7 whole entry): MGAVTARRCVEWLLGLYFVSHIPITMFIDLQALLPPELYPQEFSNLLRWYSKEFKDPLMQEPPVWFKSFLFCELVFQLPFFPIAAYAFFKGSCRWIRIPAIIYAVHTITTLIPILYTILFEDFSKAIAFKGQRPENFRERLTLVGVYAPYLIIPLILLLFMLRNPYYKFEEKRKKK

[14] = biological target: T1, Sigma non-opioid intracellular receptor 1; assay: Displacement of [3H]-(+)-pentazocine from sigma1 receptor in guinea pig brain membrane assessed as inhibition constant measured for 150 mins in presence of haloperidol; assay type: cell membranes
[15] = Ratio of Ki for displacement of [3H]DTG from sigma 2 receptor in rat liver membranes assessed as inhibition constant presence of haloperidol by scintillation counting analysis to Ki for displacement of [3H]-(+)-pentazocine from sigma 1 receptor in guinea pig brain membrane assessed as inhibition constant in presence of haloperidol; assay type: cell membranes
[16] = biological target: T3, Kappa-type opioid receptor; assay: Displacement of [3H]-diprenorphine from KOR receptor (unknown origin) assessed as inhibition constant in presence of D-Ala-N-MePhe-Gly-ol-enkephalin and D-Ala-DLeu-enkephalin
[17] = biological target: T2, Sigma intracellular receptor 2; assay: Displacement of [3H]DTG from sigma 2 receptor (unknown origin) assessed as inhibition constant in presence of (+)-SKF10047 by radioligand binding assay
[18] = biological target: T4, Sigma non-opioid intracellular receptor 1; assay: Inhibition of sigma 1 receptor (unknown origin)
[19] = biological target: T1, Sigma non-opioid intracellular receptor 1; assay: Displacement of [3H]-(+)-pentazocine from sigma1 receptor in guinea pig brain membrane assessed as inhibition constant; assay type: cell membranes
[20] = biological target: T5, Sigma intracellular receptor 2; assay: Displacement of [3H]DTG from sigma 2 receptor in rat liver membranes assessed as inhibition constant presence of dextrallorphan; assay type: cell membranes, Membrane
[21] = Ratio of Ki for displacement of [3H]-(+)-pentazocine from sigma1 receptor in guinea pig brain membrane assessed as inhibition constant to Ki for displacement of [3H]-(+)-pentazocine from sigma1 receptor in guinea pig brain membrane assessed as inhibition constant; assay type: cell membranes; parameters: reference not given here
[22] = biological target: T1, Sigma non-opioid intracellular receptor 1; assay: Displacement of [3H]-(+)-pentazocine from sigma1 receptor in guinea pig brain membrane assessed as inhibition constant measured after 120 mins by scintillation counting method; assay type: cell membranes
[23] = biological target: T4, Sigma non-opioid intracellular receptor 1; assay: Agonist activity at sigma1 receptor (unknown origin); conditions: filed as agonist
[24] = biological target: T2, Sigma intracellular receptor 2; assay: Displacement of [3H]DTG from sigma 2 receptor (unknown origin) assessed as inhibition constant incubated for 120 mins in presence of (+)-SKF10047 by radioligand binding assay

Question: With CO[C@H](C)CN1CC[C@@]2(C)c3ccc(O)cc3C[C@@H]1C2(C)C as the compound, how does the Ki [1] read?
Answer: 4.5 nM

Question: What about the half-life [2] of the same compound?
Answer: 240 min

Question: What about the LD50 [3] of the same compound?
Answer: 0.4 mg/kg

Question: With CC(C)=CCN1CC[C@@]2(C)c3cc(O)ccc3C[C@H]1[C@H]2C as the compound, how does the Ki [4] read?
Answer: 2.37 µM

Question: Which Ki [5] does the source give for CC(C)=CCN1CC[C@@]2(C)c3cc(F)ccc3C[C@H]1[C@H]2C here?
Answer: 1.48 nM

Question: What about the Ki [6] of the same compound?
Answer: 154 nM

Question: And the Ratio Ki [7]?
Answer: 104

Question: For CC(C)=CCN1CCN(c2ccc3c(c2)[C@H]2C[C@@H]3CCN2C(=O)OCc2ccccc2)CC1, which Ki [8] is on record?
Answer: 23 nM

Question: What does the source list for COC(=O)C1(c2ccccc2)CC1CN1CC[C@@]2(C)c3cc(O)ccc3C[C@H]1[C@H]2C (mixture of isomers)?
Answer: Ki [9]: > 1000 nM; Ki [10]: > 1000 nM; Ki [11]: 1380 nM; Ki [12]: > 1000 nM

Question: With CC[C@@H]1[C@@H]2CCN(Cc3ccccc3)[C@@H]1Cc1ccccc12 as the compound, how does the Ki [13] read?
Answer: 115 nM

Question: What about the Ki [14] of the same compound?
Answer: 3.36 nM

Question: What about the Ratio Ki [15] of the same compound?
Answer: 34

Question: Which results are given for C[C@@H]1[C@@H]2Cc3ccccc3[C@]1(C)CCN2CCN1CCCC1?
Answer: Ki [16]: 6.4 µM; Ki [17]: 42 nM; Ki [11]: 34 nM

Question: With CC(C)[C@@H]1[C@@H]2CCN(Cc3ccccc3)[C@@H]1Cc1ccccc12 as the compound, how does the Ki [13] read?
Answer: 133 nM

Question: And the Ki [14]?
Answer: 31.7 nM

Question: And the Ratio Ki [15]?
Answer: 4

Question: For C=CCCCN1CC[C@]2(C)c3cc(O)ccc3C[C@@H]1[C@@H]2C, which Ki [18] is on record?
Answer: 180 nM

Question: What does the source list for CC(C)=CCN1CC[C@@]2(C)c3c(ccc(O)c3Br)C[C@H]1[C@H]2C?
Answer: Ki [19]: 2.49 nM; Ki [20]: 283 nM

Question: For C=CCN1CC[C@]2(C)c3cc(O)ccc3C[C@@H]1[C@@H]2C, which Ki [18] is on record?
Answer: 3200 nM

Question: Which results are given for C[C@@H]1[C@@H]2Cc3ccc(O)c(Br)c3[C@]1(C)CCN2Cc1ccccc1?
Answer: Ratio Ki [21]: 200; Ki [19]: 1.75 nM; Ki [20]: 346 nM

Question: For C[C@@H]1[C@@H]2Cc3ccc(O)cc3[C@]1(C)CCN2Cc1ccc(F)cc1, which Ki [22] is on record?
Answer: 1.45 nM

Question: With C[C@@H]1[C@@H]2Cc3ccc(O)c(Cl)c3[C@]1(C)CCN2Cc1ccccc1 as the compound, how does the Ratio Ki [21] read?
Answer: 440

Question: And the Ki [19]?
Answer: 1.72 nM

Question: And the Ki [20]?
Answer: 764 nM

Question: For C[C@@H]1[C@@H]2Cc3cc(I)c(O)cc3[C@]1(C)CCN2Cc1ccccc1, which Ki [19] is on record?
Answer: 231 nM

Question: What about the Ki [20] of the same compound?
Answer: 597 nM

Question: What does the source list for C[C@@H]1[C@@H]2Cc3ccccc3[C@]1(C)CCN2CCNc1ccccc1?
Answer: Ki [16]: 6.5 µM; Ki [17]: 144 nM; Ki [11]: 21 nM

Question: What does the source list for COC(=O)[C@]1(c2ccccc2)C[C@@H]1CN1CC[C@@]2(C)c3cc(O)ccc3C[C@H]1[C@H]2C?
Answer: Ki [9]: > 1000 nM; Ki [10]: > 25000 nM; Ki [11]: 66.7 nM; Ki [12]: > 1000 nM

Question: With C[C@@H]1[C@@H]2Cc3ccc(O)cc3[C@]1(C)CCN2CCN1CCOCC1 as the compound, how does the ED50 [23] read?
Answer: 0.82 mg/kg

Question: And the Ki [4]?
Answer: 8.17 µM

Question: And the Ki [14]?
Answer: 13.4 nM

Question: What about the Ki [24] of the same compound?
Answer: 300 nM

Question: Which Ki [4] does the source give for C[C@@H]1[C@@H]2Cc3ccc(O)cc3[C@]1(C)CCN2CCN1CCCCCC1 here?
Answer: 9.13 µM

Question: And the Ki [14]?
Answer: 20.1 nM

Question: What about the Ki [24] of the same compound?
Answer: 151 nM

Question: For COC(=O)[C@@]1(c2ccccc2)C[C@H]1CN1CC[C@@]2(C)c3cc(O)ccc3C[C@H]1[C@H]2C, which Ki [9] is on record?
Answer: > 1000 nM

Question: And the Ki [10]?
Answer: > 1000 nM

Question: What about the Ki [11] of the same compound?
Answer: 75 nM

Question: What about the Ki [12] of the same compound?
Answer: > 1000 nM
